# Measured values as given in paper PMC9794833, “Ligand recognition and activation of neuromedin U receptor 2” (Nature Communications, 2022).
# Where “and” joins values, the source holds several entries; their conditions need not be identical. Identical values can stand only once. Like-named read-outs stand apart in the source and are kept apart here. Where no end group is shown, it is not given here.
# How the values were obtained:
# Format in all cases: cell-based
# [1] = molecular target: T1, NMU2 F126A (Homo sapiens, UniProt Q9GZQ4, F126A); assay: TRUPATH assay, NMU2 mutant F126A
# T1 construct: HA signal peptide (N); expressed in transfected cells; host or cells: HEK 293F
# T1 sequence (Q9GZQ4 whole entry F126A): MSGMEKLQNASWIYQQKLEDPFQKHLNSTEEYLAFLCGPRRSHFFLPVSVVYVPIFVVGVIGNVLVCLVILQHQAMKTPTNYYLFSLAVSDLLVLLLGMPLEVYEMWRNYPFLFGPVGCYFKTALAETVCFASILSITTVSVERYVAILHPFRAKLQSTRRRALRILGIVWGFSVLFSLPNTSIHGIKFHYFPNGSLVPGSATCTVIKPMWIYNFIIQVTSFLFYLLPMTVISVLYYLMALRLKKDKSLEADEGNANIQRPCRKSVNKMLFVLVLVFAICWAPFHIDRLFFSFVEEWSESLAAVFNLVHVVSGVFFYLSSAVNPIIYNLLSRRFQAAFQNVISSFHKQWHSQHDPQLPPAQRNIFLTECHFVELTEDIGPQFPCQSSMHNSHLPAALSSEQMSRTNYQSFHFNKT
# Method: (§1) The plasmids of Gαi1, Gβ3, and Gγ9 used for the TRUPATH assay were purchased from Addgene (TRUPATH Kit, #1000000163). NMU2 constructs of WT and mutants were constructed into a PTT5 vector (Invitrogen) with an N-terminal HA signal peptide followed by a Flag tag. HEK 293F cells were transiently transfected with WT or mutants of NMU2, Gαi1, Gβ3, and Gγ9 at an […] ratio of 4:1:1:1 with a total of 3500 ng plasmid DNA using a transfection reagent (PEI MAX 2000, Polysciences) and cultivated at 37 °C with 5 % CO2. Cells were collected after 48-h transfection. The expression level of the receptor was measured by incubating 10 μl cells with 15 μl TBS buffer supplemented with 4% bovine serum albumin, 20% (v/v) viability staining solution7-AAD (Invitrogen, Cat#00-6993-50), and ANTI-FLAG M2-FITC antibody (Sigma, F4049; 1:100 diluted by TBS) at 4 °C for 20 min. After incubation, 175 μl TBS buffer was added, and the fluorescence signal on the cell surface was detected by an FCM (flow cytometry) reader (Millipore). The cells were diluted with 1× HBSS (Hank’s balanced salt solution) balanced buffer supplemented with 25 mM HEPES, pH 7.4, and seeded onto the 96-well opaque cell culture plates (Beyotime) at a density of 18,000 cells per well by 60 μl. Freshly prepared 50 μM coelenterazine 400a (Nanolight Technologies) was added into the well by 10 μl. After a 5 min equilibration time in the darkness, plates were then read in a Synerg^TM H1 microplate reader (BioTek) with excitation at 395 nm and emission at 410 and 515 nm by serially three times. Then, 30 μl of 3.3× agonists were added into the wells with a gradient final concentration from 10^−4–10^−13 M. Plates were read immediately again by serially five times. Data were processed and analyzed following the method in the literature by using GraphPad Prism 8.0.
# [2] = molecular target: T2, NMU2 W281A (Homo sapiens, UniProt Q9GZQ4, W281A); assay: TRUPATH assay, NMU2 mutant W281A
# T2 construct: HA signal peptide (N); expressed in transfected cells; host or cells: HEK 293F
# T2 sequence (Q9GZQ4 whole entry W281A): as the sequence (Q9GZQ4 whole entry F126A) above, with A126F, W281A counted along it
# Method: as §1
# [3] = molecular target: T3, NMU2 F284A (Homo sapiens, UniProt Q9GZQ4, F284A); assay: TRUPATH assay, NMU2 mutant F284A
# T3 construct: HA signal peptide (N); expressed in transfected cells; host or cells: HEK 293F
# T3 sequence (Q9GZQ4 whole entry F284A): as the sequence (Q9GZQ4 whole entry F126A) above, with A126F, F284A counted along it
# Method: as §1
# [4] = molecular target: T4, NMU2 F291A (Homo sapiens, UniProt Q9GZQ4, F291A); assay: TRUPATH assay, NMU2 mutant F291A
# T4 construct: HA signal peptide (N); expressed in transfected cells; host or cells: HEK 293F
# T4 sequence (Q9GZQ4 whole entry F291A): as the sequence (Q9GZQ4 whole entry F126A) above, with A126F, F291A counted along it
# Method: as §1
# [5] = molecular target: T5, NMU2 A302H (Homo sapiens, UniProt Q9GZQ4, A302H); assay: TRUPATH assay, NMU2 mutant A302H
# T5 construct: HA signal peptide (N); expressed in transfected cells; host or cells: HEK 293F
# T5 sequence (Q9GZQ4 whole entry A302H): as the sequence (Q9GZQ4 whole entry F126A) above, with A126F, A302H counted along it
# Method: as §1
# [6] = molecular target: T6, NMU2 N306Q (Homo sapiens, UniProt Q9GZQ4, N306Q); assay: TRUPATH assay, NMU2 mutant N306Q
# T6 construct: HA signal peptide (N); expressed in transfected cells; host or cells: HEK 293F
# T6 sequence (Q9GZQ4 whole entry N306Q): as the sequence (Q9GZQ4 whole entry F126A) above, with A126F, N306Q counted along it
# Method: as §1
# [7] = molecular target: T7, NMU2 F131L (Homo sapiens, UniProt Q9GZQ4, F131L); assay: IP accumulation assay, NMU2 mutant F131L; conditions: IP accumulation
# T7 construct: HA signal peptide (N); expressed in transfected cells; host or cells: HEK 293F, transient transfection, PTT5 vector
# T7 sequence (Q9GZQ4 whole entry F131L): as the sequence (Q9GZQ4 whole entry F126A) above, with A126F, F131L counted along it
# Method: (§2) NMU2 constructs of WT and mutants were constructed into PTT5 vector (Invitrogen), as mentioned above. HEK 293F cells were transiently transfected with WT or mutants with total of 2000 ng plasmid DNA using transfection reagent (PEI MAX 2000, Polysciences) and cultivated at 37 °C with 5% CO2. Cells were collected after 48-h transfection. IP accumulation was tested by IP-One Gq assay kit (Cisbio Bioassays, 62IPAPEJ) following the instruction manual. In general, cells were resuspended with 1× HBSS buffer containing 20 mM LiCl (stimulation buffer) and seeded into the white 384-well microplates (Proxi Plate^TM-384 Plus, PerkinElmer) with a density of 20,000 per well. Cells were preincubated with 10^−5 M R-PSOP (provided by Boehringer Ingelheim company, Germany) and gradient concentration from 10^−4 to 10^−11 M of NMU-25 or gradient concentration 10^−4 to 10^−11 M of NMU-25 alone in stimulation buffer at 37 °C for 90 min. The cryptate-labeled anti-IP1 monoclonal antibody and d2-labeled IP1 were diluted with lysis & detection buffer (1:20) and added to each well by 3 μl, respectively. The plates were incubated at room temperature for 60 minutes and then read in a Synerg^TM H1 microplate reader (BioTek) with excitation at 330 nm and emission at 620 and 665 nm. The IP1 production was calculated by a standard dose–response curve and analyzed by GraphPad Prism 8.0.
# [8] = molecular target: T8, NMU2 F177C (Homo sapiens, UniProt Q9GZQ4, F177C); assay: IP accumulation assay, NMU2 mutant F177C; conditions: IP accumulation
# T8 construct: HA signal peptide (N); expressed in transfected cells; host or cells: HEK 293F, transient transfection, PTT5 vector
# T8 sequence (Q9GZQ4 whole entry F177C): as the sequence (Q9GZQ4 whole entry F126A) above, with A126F, F177C counted along it
# Method: as §2
# [9] = molecular target: T9, NMU2 F224A (Homo sapiens, UniProt Q9GZQ4, F224A); assay: IP accumulation assay, NMU2 mutant F224A; conditions: IP accumulation
# T9 construct: HA signal peptide (N); expressed in transfected cells; host or cells: HEK 293F, transient transfection, PTT5 vector
# T9 sequence (Q9GZQ4 whole entry F224A): as the sequence (Q9GZQ4 whole entry F126A) above, with A126F, F224A counted along it
# Method: as §2
# [10] = molecular target: T10, NMU2 H285A (Homo sapiens, UniProt Q9GZQ4, H285A); assay: IP accumulation assay, NMU2 mutant H285A; conditions: IP accumulation
# T10 construct: HA signal peptide (N); expressed in transfected cells; host or cells: HEK 293F, transient transfection, PTT5 vector
# T10 sequence (Q9GZQ4 whole entry H285A): as the sequence (Q9GZQ4 whole entry F126A) above, with A126F, H285A counted along it
# Method: as §2
# [11] = molecular target: T11, NMU2 R288A (Homo sapiens, UniProt Q9GZQ4, R288A); assay: IP accumulation assay, NMU2 mutant R288A
# T11 construct: HA signal peptide (N); expressed in transfected cells; host or cells: HEK 293F
# T11 sequence (Q9GZQ4 whole entry R288A): as the sequence (Q9GZQ4 whole entry F126A) above, with A126F, R288A counted along it
# Method: as §2
# [12] = read-out: pEC50 mean±SEM (converted)
# [13] = read-out: pEC50±SEM, NmU-25 alone (converted)
substance,measurement,setting,value
FRVDEEFQSPFASQSRGYFLFRPRN-NH2 [NmU-25],EC50 ratio EC50(mutant)/EC50(WT),[1],18
same,Span (window between Emax and minimal agonist response),[1],27±10 % of WT
same,"G protein activation (TRUPATH), dose-response point",[1]; Log [agonist] M -4,26.6728 and 20.7775
same,ΔpEC50 (from WT),[1]; individual experiments,-2.148 and -1.125 and -1.6853
same,EC50,[1]; read-out: EC50,625 nM
same,EC50,[1]; [12],631 nM
same,EC50 ratio EC50(mutant)/EC50(WT),[2],24
same,Span (window between Emax and minimal agonist response),[2],55±9 % of WT
same,"G protein activation (TRUPATH), dose-response point",[2]; Log [agonist] M -4,31.1201 and 49.629
same,ΔpEC50 (from WT),[2]; individual experiments,-1.673 and -1.545 and -1.465
same,EC50,[2]; read-out: EC50,814 nM
same,EC50,[2]; [12],813 nM
same,NmU-25–induced G protein activation of NMU2,"[3]; Log [NmU-25] M -4, single replicates",51.7867 and 36.0609 and 47.0977
same,NmU-25–induced G protein activation of NMU2,"[3]; Log [NmU-25] M -5, single replicates",36.8137 and 51.0666 and -1.433 and 5.137 and 15.0834
same,NmU-25–induced G protein activation of NMU2,"[3]; Log [NmU-25] M -6, single replicates",-9.689 and 18.4963 and 20.7431 and 10.1867 and 6.446
same,NmU-25–induced G protein activation of NMU2,"[3]; Log [NmU-25] M -7, single replicates",16.596 and 4.555 and 25.4325 and 3.668 and -4.14
same,NmU-25–induced G protein activation of NMU2,"[3]; Log [NmU-25] M -8, single replicates",37.8124 and 33.3355 and -35.58 and 1.433 and 3.8556
same,NmU-25–induced G protein activation of NMU2,"[3]; Log [NmU-25] M -9, single replicates",18.5281 and 39.1515 and -3.291 and -33.2453 and 1.059
same,NmU-25–induced G protein activation of NMU2,"[3]; Log [NmU-25] M -10, single replicates",-33.6452 and 11.984 and -41.6359 and -19.8948 and -2.9799
same,NmU-25–induced G protein activation of NMU2,"[3]; Log [NmU-25] M -11, single replicates",-12.488 and 31.0606 and -18.1089 and -17.8891 and -12.403
same,"G protein activation (TRUPATH), dose-response point",[3]; Log [agonist] M -4,51.7867 and 36.0609 and 47.0977
same,EC50 ratio EC50(mutant)/EC50(WT),[4],22
same,Span (window between Emax and minimal agonist response),[4],126±11 % of WT
same,"G protein activation (TRUPATH), dose-response point",[4]; Log [agonist] M -4,101.173 and 139.066
same,"G protein activation (TRUPATH), dose-response point",[4]; Log [agonist] M -5,80.701 and 107.283 and 106.417
same,span,"[4]; compared with wild-type, peer review file",127%
same,ΔpEC50 (from WT),[4]; individual experiments,-0.7238 and -1.311 and -0.9879
same,EC50,[4]; read-out: EC50,737 nM
same,EC50,[4]; [12],741 nM
same,EC50 ratio EC50(mutant)/EC50(WT),[5],5
same,Span (window between Emax and minimal agonist response),[5],97±11 % of WT
same,"G protein activation (TRUPATH), dose-response point",[5]; Log [agonist] M -4,97.2233 and 94.5294
same,"G protein activation (TRUPATH), dose-response point",[5]; Log [agonist] M -6,58.8982 and 69.5076 and 54.0633
same,ΔpEC50 (from WT),[5]; individual experiments,-0.7587 and -0.754 and -0.956
same,EC50,[5]; read-out: EC50,162 nM
same,EC50,[5]; [12],162 nM
same,EC50 ratio EC50(mutant)/EC50(WT),[6],14
same,Span (window between Emax and minimal agonist response),[6],101±10 % of WT
same,"G protein activation (TRUPATH), dose-response point",[6]; Log [agonist] M -4,89.9582 and 52.9953 and 88.5352
same,"G protein activation (TRUPATH), dose-response point",[6]; Log [agonist] M -5,95.8006 and 91.3095 and 87.6434
same,ΔpEC50 (from WT),[6]; individual experiments,-1.093 and -0.9304 and -1.223
same,EC50,[6]; read-out: EC50,466 nM
same,EC50,[6]; [12],468 nM
same,EC50,"[7]; read-out: EC50, NmU-25 alone",11 nM
same,EC50,[7]; [13],10.7 nM
same,EC50,"[8]; read-out: EC50, NmU-25 alone",7 nM
same,EC50,[8]; [13],7.08 nM
same,EC50,"[9]; read-out: EC50, NmU-25 alone",46 nM
same,EC50,[9]; [13],45.7 nM
same,EC50,"[10]; read-out: EC50, NmU-25 alone",214 nM
same,EC50,[10]; [13],214 nM
same,NmU-25-induced IP accumulation (in words),[11],totally eliminated
